Test results reported in article PMC7763155, “Design and Characterisation of Inhibitory Peptides against Bleg1_2478, an Evolutionary Divergent B3 Metallo-β-lactamase” (Molecules, 2020).
Read-outs that look alike come from different tables or passages of the source. No end group written: not given here.

Tests used:
[1] = test system: Class A SBLs; settings: in words; ref [17],[18],[19]; cited from earlier work
Source text: (§1) AMR among bacteria can be acquired through various means, i.e., through: (1) hydrolysis or inactivation of antibiotics by synthesizing enzymes; (2) redox process by exploiting the oxidation or reduction of the antibiotics; (3) modification of antibiotics by chemical substitution; (4) modification of the inhibition binding site in the target; (5) mutations on genes that encode the target or efflux pump that affect antibiotics uptake; (6) horizontal gene transfer where resistant genes are transferred from one pathogen to another via transduction, conjugation or ...

[2] = test system: MBLs; settings: in words; ref [20]; cited from earlier work
Source text: as §1

[3] = target: T1, Bleg1_2478 (Shouchella lehensis (Bacillus lehensis), UniProt A0A060M4R1); assay: Isothermal titration calorimetry (ITC) with Bleg1_2478; assay type: binding, Bacillus lehensis G1
Protocol: ITC measurement was performed at 30 °C with nanoisothermal titration calorimetry, TA Instrument, USA at Malaysian Genome Institute. The peptides were dissolved in 20 mM sodium phosphate buffer (Na2HPO4-NaH2PO4) (pH 7.0). Bleg1_2478 protein sample, the selected peptide inhibitors and 20 mM sodium phosphate buffer (Na2HPO4-NaH2PO4) (pH 7.0) were firstly degassed by using Themovac Unit. The experiment was carried out at 30 °C with stirring speed of 300 rpm. The calorimetry data were subsequently analysed using NanoAnalyze Software v3.8.0. (New Castle, DE, USA)

[4] = target: T1, Bleg1_2478; assay: Inhibitory assay of designed peptides against Bleg1_2478 (ampicillin hydrolysis); assay type: biochemical, Bacillus lehensis G1; settings: pH 7.0, 30 °C, triplicates
Protocol: The ability of the peptides in inhibiting Bleg1_2478 was investigated via inhibitory assay. Firstly, enzymatic assay of purified Bleg1_2478 recombinant protein using ampicillin as the substrate was performed, serving as the positive control. The assay was carried out based on the method by. All assays were performed at 30 °C in total assay volume of 3 mL containing 20 mM sodium phosphate (Na2HPO4-NaH2PO4) (pH 7.0), 20 µg/mL BSA, 100 µM ZnSO4, 10 µM Bleg1_2478 and 100 µM ampicillin. The reaction was monitored by recording the absorbance at 235 nm every 1 min for a total duration of 6 min using a 50 Bio UV Visible Spectrophotometry. […] All assays were done in triplicates.

[5] = target: T1, Bleg1_2478; settings: in words; ref [22]; cited from earlier work
Source text: Biochemical characterization of purified recombinant Bleg1_2478 further confirmed that it was indeed capable of degrading β-lactam antibiotics, with ampicillin ...

[6] = target: Bleg1_2478 recombinant protein (Bacillus lehensis G1)
[7] = target: Bleg1_2478 recombinant protein (Bacillus lehensis G1); assay: ITC; nano isothermal titration calorimetry (TA Instruments), 30 °C, 20 mM sodium phosphate buffer pH 7.0, stirring 300 rpm; which partner was in the cell and the concentrations are not stated
[8] = target: Bleg1_2478 recombinant protein (Bacillus lehensis G1); remark: listed apart in the source
[9] = ITC, 30 °C, 20 mM sodium phosphate pH 7.0, 300 rpm, read-out: Dissociation constant, Kd
[10] = 10 µM peptide, 10 µM enzyme, 100 µM ampicillin

Molecule: O=C(O)[C@H]1/C(=C/CO)O[C@@H]2CC(=O)N21 [clavulanate]
- Effectiveness against Class A SBLs [1]: effective
- Effectiveness against MBLs [2]: not

Molecule: SSWWDR [SSWWDR]
- Kd [3, 9]: 992 nM
- Fold increase in binding affinity (Ka) ([3]; ITC, compared to ampicillin): 1.5 fold
- Fold increase in binding strength (Kd) ([3]; ITC, compared to ampicillin): 68 fold
- Inhibition of Bleg1_2478 ([4]; 0.25 µM peptide): 4%
- Inhibition of Bleg1_2478 ([4]; 0.50 µM peptide): 48%
- Inhibition of Bleg1_2478 ([4]; 0.75 µM peptide): 64%
- Inhibition of Bleg1_2478 [4, 10]: 88%
- Inhibition of Bleg1_2478 ([4]; 20 µM peptide, 10 µM enzyme, 100 µM ampicillin): 96%

Molecule: CC1(C)[C@H](C(=O)O)N2C(=O)C[C@H]2S1(=O)=O [sulbactam]
- Effectiveness against Class A SBLs [1]: effective
- Effectiveness against MBLs [2]: not

Molecule: CC1(C)S[C@@H]2[C@H](NC(=O)[C@H](N)c3ccccc3)C(=O)N2[C@H]1C(=O)O [Ampicillin, ampicillin, reference compound]
- Substrate preference [5]: preferred substrate
- Kd [3]: 1470 nM
- Entropy, ΔS ([3]; ITC, 30 °C, 20 mM sodium phosphate pH 7.0): −248.00 J/mol·K
- Association constant, Ka ([3]; ITC, 30 °C, 20 mM sodium phosphate pH 7.0, 300 rpm): 680000 M⁻¹
- Number of binding sites from stoichiometry ([3]; ITC, in words): one binding site

Molecule: C[C@]1(Cn2ccnn2)[C@H](C(=O)O)N2C(=O)C[C@H]2S1(=O)=O [tazobactam]
- Effectiveness against Class A SBLs [1]: effective
- Effectiveness against MBLs [2]: not

Molecule: RSWPWH [RSWPWH]
- Kd [3, 9]: 497 nM
- Fold increase in binding strength (Kd) ([3]; ITC, compared to ampicillin): 34 fold
- Inhibition of Bleg1_2478 ([4]; 0.75 µM peptide): 12%
- Inhibition of Bleg1_2478 [4, 10]: 92%

B1: RSWPWH inhibitory peptide (peptide)
peptide: RSWPWH
- IC50 of inhibition of Bleg1 2478 enzymatic activity (hydrolysis of 100 µM ampicillin by 10 µM Bleg1 2478, absorbance at 235 nm, 30 °C, pH 7.0) [6]: 0.9 µM
- Ka [7]: 2.01e+06 M⁻¹
- Kd [7]: 497 nM
- stoichiometry N [7]: 0.941
- percent inhibition of Bleg1 2478 activity on ampicillin at 0.75 to 20 µM peptide (12% at 0.75 µM, 54% at 0.90 µM, 68% at 1 µM, 92% at 10 µM, the same at 20 µM) [8]: 92%

B2: SSWWDR inhibitory peptide (peptide)
peptide: SSWWDR
- IC50 of inhibition of Bleg1 2478 enzymatic activity (hydrolysis of 100 µM ampicillin by 10 µM Bleg1 2478, absorbance at 235 nm, 30 °C, pH 7.0) [6]: 0.5 µM
- Ka [7]: 1.01e+06 M⁻¹
- Kd [7]: 992 nM
- stoichiometry N [7]: 0.722
- percent inhibition of Bleg1 2478 activity on ampicillin at 0.25 to 20 µM peptide (4% at 0.25 µM, 48% at 0.50 µM, 64% at 0.75 µM, 76% at 1 µM, 88% at 10 µM, 96% at 20 µM) [8]: 96%
